Experimental data reported in patent US8697747B2, “Enhancing coagulation or reducing fibrinolysis” (THe UAB Research Foundation, priority 2009, dated 2014).
Marks after values point to notes of the source that are not given here.

How the values were obtained:
rat plasma = assay: Thrombelastography in rat plasma with or without tPA; type: biochemical
Description: (§1) Two sets of two Sprague Dawley outbred male rats were anesthetized with ketamine and xylazine and had blood drawn via cardiac puncture, pooled in two batches, and anticoagulated 1:9 with 3.2% sodium citrate. Two male New Zealand White rabbits were sedated with acepromazine and had blood collected via central ear artery and similarly anticoagulated. Blood was centrifuged at 3000×g for 15 min, and the plasma stored in two batches until analyzed. The final volume for thrombelastographic plasma sample mixtures was 359.6 μL. Sample composition consisted of 316 μL of plasma; 10 μL of tissue factor reagent (0.1% final concentration in dH2O; Instrumentation Laboratory, Lexington, Mass.); 10 μL of dH2O or tissue-type plasminogen activator (tPA, 580 U/μg, Genentech, Inc., San Francisco, Calif.) for a final activity of 2000 U/mL for rat plasma or 300 IU/mL for rabbit plasma; 3.6 μL of dimethyl sulfoxide (DMSO) or DMSO with CORM-2 (100 μM final concentration; Sigma-Aldrich, St. Louis, Mo.); and 20 μL of 200 mM CaCl2. The tPA activity for each species was determined with pilot data to obtain reproducible lysis within 15 min. There was no appreciable lysis in rat plasma at 100, 300, or 1000 U/mL tPA. Plasma sample mixtures were placed in a disposable cup in a computer-controlled THROMBELASTOGRAPH® hemostasis system (Model 5000, Haemoscope Corp., Niles, Ill.), with addition of CaCl2 as the last step to initiate clotting. In experiments without tPA, data were collected until clot strength (maximum amplitude) was stable. In experiments with tPA, data derived from the second rabbit plasma samples were collected for 60 min whereas data obtained with the second rat plasma samples were collected for 15 min. Thrombelastographic variables were determined at 39° C. as previously described in Examples 1, 2, and 4. Data were statistically compared with unpaired Student's t-test.

rabbit plasma = assay: Thrombelastography in rabbit plasma with or without tPA; type: biochemical
Description: as §1

[1] = 2000 U/ml tPA, 100 μM CORM-2, mean ± SD, n=4
[2] = 2000 U/ml tPA, 100 μM vs 0 μM CORM-2
[3] = no tPA, 100 μM CORM-2, mean ± SD, n=4
[4] = 300 U/ml tPA, 100 μM CORM-2, mean ± SD, n=4
[5] = 300 U/ml tPA, 100 μM vs 0 μM CORM-2
[6] = no tPA, 100 μM CORM-2, mean ± SD, n=7

Question: Which “ACL (area under the curve of lysis)” value (rat plasma; [1]) does the source give for `[C-]#[O+].[C-]#[O+].[C-]#[O+].[C-]#[O+].[C-]#[O+].[C-]#[O+].[Cl][Ru][Cl].[Cl][Ru][Cl]` [CORM-2, tricarbonyldichlororuthenium (II) dimer] here?
Answer: 0 ± 0 −dynes/cm^2

Question: And the “MRL (maximum rate of lysis)” value (rat plasma; [1])?
Answer: 0.0 ± 0.0 −dynes/cm^2/sec

Question: And the “MRTG (maximum rate of thrombus generation)” value (rat plasma; [1])?
Answer: 14.7 ± 0.6 dynes/cm^2/sec

Question: What about the “TMRTG (time to maximum rate of thrombus generation)” value (rat plasma; [1]) of the same compound?
Answer: 1.5 ± 0.1 min

Question: What about the “TTG (total thrombus generation)” value (rat plasma; [1]) of the same compound?
Answer: 230 ± 6 dynes/cm^2

Question: And the “TMRL (time to maximum rate of lysis)” value (rat plasma; 2000 U/ml tPA, 100 μM CORM-2, n=4)?
Answer: No Lysis

Question: And the “Percent Change of ACL” value (rat plasma; [2])?
Answer: −100%

Question: What about the “Percent Change of MRL” value (rat plasma; [2]) of the same compound?
Answer: −100%

Question: And the “Percent Change of MRTG” value (rat plasma; [2])?
Answer: 29%

Question: What about the “Percent Change of TMRTG” value (rat plasma; [2]) of the same compound?
Answer: 0%

Question: And the “Percent Change of TTG” value (rat plasma; [2])?
Answer: 23%

Question: What about the “MRTG (maximum rate of thrombus generation)” value (rat plasma; [3]) of the same compound?
Answer: 14.7 ± 0.6 dynes/cm^2/sec

Question: And the “TMRTG (time to maximum rate of thrombus generation)” value (rat plasma; [3])?
Answer: 1.5 ± 0.1 min

Question: What about the “TTG (total thrombus generation)” value (rat plasma; [3]) of the same compound?
Answer: 230 ± 6 dynes/cm^2

Question: What about the “Percent Change of MRTG” value (rat plasma; no tPA, 100 μM vs 0 μM CORM-2) of the same compound?
Answer: 29%

Question: And the “Percent Change of TMRTG” value (rat plasma; no tPA, 100 μM vs 0 μM CORM-2)?
Answer: 0%

Question: What about the “Percent Change of TTG” value (rat plasma; no tPA, 100 μM vs 0 μM CORM-2) of the same compound?
Answer: 23%

Question: And the “ACL (area under the curve of lysis)” value (rabbit plasma; [4])?
Answer: 196.3 ± 25*^ −dynes/cm^2

Question: What about the “MRL (maximum rate of lysis)” value (rabbit plasma; [4]) of the same compound?
Answer: −2.5 ± 0.4 −dynes/cm^2/sec

Question: What about the “MRTG (maximum rate of thrombus generation)” value (rabbit plasma; [4]) of the same compound?
Answer: 14.2 ± 1.4 dynes/cm^2/sec

Question: And the “TMRL (time to maximum rate of lysis)” value (rabbit plasma; [4])?
Answer: 2.6 ± 0.5 min

Question: What about the “TMRTG (time to maximum rate of thrombus generation)” value (rabbit plasma; [4]) of the same compound?
Answer: 2.8 ± 0.1 min

Question: And the “TTG (total thrombus generation)” value (rabbit plasma; [4])?
Answer: 237 ± 8 dynes/cm^2

Question: What about the “Percent Change of ACL” value (rabbit plasma; [5]) of the same compound?
Answer: 94%

Question: And the “Percent Change of MRL” value (rabbit plasma; [5])?
Answer: −63%

Question: What about the “Percent Change of MRTG” value (rabbit plasma; [5]) of the same compound?
Answer: 52%

Question: And the “Percent Change of TMRL” value (rabbit plasma; [5])?
Answer: 110%

Question: And the “Percent Change of TMRTG” value (rabbit plasma; [5])?
Answer: 8%

Question: And the “Percent Change of TTG” value (rabbit plasma; [5])?
Answer: 118%

Question: And the “MRTG (maximum rate of thrombus generation)” value (rabbit plasma; [6])?
Answer: 13.9 ± 2.9 dynes/cm^2/sec

Question: And the “TMRTG (time to maximum rate of thrombus generation)” value (rabbit plasma; [6])?
Answer: 2.8 ± 0.1 min

Question: And the “TTG (total thrombus generation)” value (rabbit plasma; [6])?
Answer: 290 ± 35 dynes/cm^2

Question: And the “Percent Change of MRTG” value (rabbit plasma; no tPA, 100 μM vs 0 μM CORM-2)?
Answer: 46%

Question: And the “Percent Change of TMRTG” value (rabbit plasma; no tPA, 100 μM vs 0 μM CORM-2)?
Answer: 5%

Question: And the “Percent Change of TTG” value (rabbit plasma; no tPA, 100 μM vs 0 μM CORM-2)?
Answer: 25%
